Data: US12285034B2, “Human and non-human animal use of microbial anaplerotic oil” (HELIAE DEVELOPMENT, LLC, priority 2017, dated 2025)
Read-outs that look alike come from different tables or passages of the source.

Columns and labels:
mold and bacteria = settings: low levels; cited from earlier work
[1] = tested on: Aurantiochytrium acetophilum HS399; assay: Model of intracellular (cytosolic) propionate, Henderson-Hasselbalch (Example 4)
Excerpt: In one implementation, the change in pH may be calculated with the following equation derived from the Henderson and Hasselbalch equation: […]

[2] = tested on: Aurantiochytrium acetophilum HS399; type: cell-based; settings: for OCFA / Total Fatty Acids / Total Lipids: harvest; for OCFA Productivity / Propionate deposition: 120 h
Method: Respective Erlenmeyer flasks (250 mL) are inoculated (1% v/v) in triplicates with a 24 h old culture of A. acetophilum HS399 and incubated in an orbital shaker at 180 rpm and 27° C.
Respective Erlenmeyer flasks contain 100 mL of a medium supplemented with (g/L): dextrose (100), ammonium acetate (4.6), NaCl (12.5), MgSO4 7H2O (2.5), KH2PO4 (0.5), KCl (0.5) and CaCl2 (0.1). This medium also contains trace element solution (5 ml/L) and vitamin solution (1 ml/L). The trace element solution contains (g/L): EDTA di-sodium salt (6), FeCl3 6H2O (0.29), […] (6.84), MnCl2 4H2O (0.86), ZnCl2 (0.06), CoCl2 6H2O (0.026), NiSO4 6H2O (0.052), CuSO4 5H2O (0.002), Na2MoO4H2O (0.005). The vitamin solution contains (mg/L): thiamine (100), biotin (0.5) and cyanocobalamin (0.5).
In this example, respective culture materials are autoclaved (e.g., 121° C., 15 min) and the media is filter sterilized before use. […] Daily samples are collected to analyze the cell dry weight, residual glucose, culture pH (see FIG. 15), and lipid and fatty acid composition of the cultures. Cell dry weights are analyzed by filtration (e.g., 0.2 μm filter media) using a vacuum and washed with a solution of ammonium bicarbonate. Residual glucose is analyzed using a colorimetric method based on glucose […] activity. Biomass for lipid analysis is centrifuged and washed using purified water. The washed biomass is freeze dried. Total lipids are analyzed using Folch method (AOAC 996.06) and the FAMES are analyzed by gas chromatography and flame ionization detection using nonadecanoic (C19:0) acid as an internal standard.

[3] = tested on: Aurantiochytrium acetophilum HS399
Method: Respective Erlenmeyer flasks (250 mL) can be inoculated (1% v/v) in triplicates with a 24 hour (h) old culture of A. acetophilum HS399 and incubated in an orbital shaker at 180 rpm and 27° C.
In this implementation, the respective Erlenmeyer flasks contain 100 mL of a medium supplemented with (g/L): dextrose (50), ammonium acetate (2.3), NaCl (12.5), MgSO4 7H2O (2.5), KH2PO4 (0.5), KCl (0.5) and CaCl2 (0.1). This medium also contains trace element solution (5 ml/L) and vitamin solution (1 ml/L). The trace element solution contains (g/L): EDTA di-sodium salt (6), FeCl3 6H2O (0.29), […] (6.84), MnCl2 4H2O (0.86), ZnCl2 (0.06), CoCl2 6H2O (0.026), NiSO4 6H2O (0.052), CuSO4 5H2O (0.002), Na2MoO4H2O (0.005). The vitamin solution contains (mg/L): thiamine (100), biotin (0.5) and cyanocobalamin (0.5). All culture materials can be autoclaved (121° C., 15 min) and media can be filter sterilized before use. […] Daily samples can be collected to analyze the cell dry weight, residual glucose, culture pH, lipid and fatty acid composition of the cultures. Cell dry weights are analyzed by vacuum filtration (0.2 μm) and washed with a solution of ammonium bicarbonate. Residual glucose is analyzed using a colorimetric method based on glucose […] activity. Biomass for lipid analysis can be centrifuged and washed using purified water. The washed biomass can be freeze dried. Total lipids are analyzed using the Folch method (AOAC 996.06) and the FAMES are analyzed by gas chromatography using nonadecanoic (C19:0) acid as an internal standard.

[4] = propionate 0 + 1 + 1 + 1 g/L (Day 5)
[5] = propionate 0 + 2 + 2 + 2 g/L (Day 5)
[6] = propionate 0 + 3 g/L (Day 5), listed as propionate
[7] = propionate 3 g/L (Day 5), listed as propionate

CCC(=O)O [Propionate, propionic acid]
level inhibiting growth of mold and bacteria (mold and bacteria): < 1 % by weight
intracellular propionate concentration ([1]; from 1 g/L, pH 7 (growth inhibitory)): 1 g/L
intracellular propionate concentration ([1]; from ~15 g/L residual, pH 6 (lethal)): 176 g/L
lethal threshold, Cytosolic Propionate ([1]; initial propionate 20 g/L, pH 6.4): 97.7 g/L
D1-D4 Average Internal Propionic Acid (Theoretical Values) ([1]; pH 5 set point): 56.70 g/L
D1-D4 Average Internal Propionic Acid (Theoretical Values) ([1]; pH 6 set point): 4.18 g/L
D1-D4 Average Internal Propionic Acid (Theoretical Values) ([1]; pH 7 set point): 0.13 g/L
lethal threshold, Cytosolic Propionate ([1]; pH drift approach, pH 5.3, 2.3 g/L, listed as Propionic acid): 107.5 ± 3.5 g/L
lethal threshold, Cytosolic Propionate ([1]; pH drift approach, pH 5.3, 2.3 g/L, listed as propionate): 107.5 g/L
residual concentration giving some growth inhibition [2]: 1 g/L
increase of OCFAs productivity by feeding propionate merely during lipogenesis ([2]; P3 vs P0+3): approximately 20%
OCFA ([2]; propionate 0 + 1 + 1 + 1 g/L): 29.2 ± 0.4 % TFA
Total Fatty Acids ([2]; propionate 0 + 1 + 1 + 1 g/L): 67.2 ± 5.0 % DW
Total Lipids ([2]; propionate 0 + 1 + 1 + 1 g/L): 79.7 ± 0.6 % DW
OCFA ([2]; propionate 0 + 2 + 2 + 2 g/L): 53.5 ± 0.8 % TFA
Total Fatty Acids ([2]; propionate 0 + 2 + 2 + 2 g/L): 63.5 ± 1.6 % DW
Total Lipids ([2]; propionate 0 + 2 + 2 + 2 g/L): 76.0 ± 1.0 % DW
Total Fatty Acids ([2]; propionate 0 + 3 g/L): 66.0 ± 2.2 % DW
Total Lipids ([2]; propionate 0 + 3 g/L): 79.5 ± 0.5 % DW
OCFA ([2]; propionate 0 + 3 g/L (P0+3)): 27.6 ± 0.1 % TFA
OCFA ([2]; propionate 0 + 3 g/L (P0+3), listed as propionate): 27.4 % TFA
OCFA ([2]; propionate 3 g/L (P3)): 25.5 ± 0.2 % TFA
OCFA ([2]; propionate 3 g/L (P3), listed as propionate): 25.2 % TFA
Total Fatty Acids ([2]; propionate 3 g/L (day 0)): 64.8 ± 1.2 % DW
Total Lipids ([2]; propionate 3 g/L (day 0)): 78.0 ± 0.0 % DW
OCFA Productivity [2, 4]: 1.19 ± 0.03 g/L/day
Propionate deposition [2, 4]: 59.6 ± 1.4%
OCFA Productivity [2, 5]: 1.86 ± 0.04 g/L/day
Propionate deposition [2, 5]: 46.7 ± 0.9%
OCFA Productivity ([2]; propionate 0 + 3 g/L (Day 5)): 1.18 ± 0.02 g/L/day
Propionate deposition ([2]; propionate 0 + 3 g/L (Day 5)): 59.3 ± 1.1%
OCFA Productivity [2, 6]: 1.18 ± 0.02 g/L/day
Propionate deposition [2, 6]: 59.3±1.1%
OCFA Productivity ([2]; propionate 3 g/L (Day 5)): 1.04 ± 0.01 g/L/day
Propionate deposition ([2]; propionate 3 g/L (Day 5)): 52.2 ± 0.7%
OCFA Productivity [2, 7]: 1.18 ± 0.02 g/L/day
Propionate deposition [2, 7]: 52.2±0.7%
OCFA Productivity [3]: 0.81 ± 0.06 g/L/day
concentration strongly inhibitory to growth [3]: 10000 µg/mL
growth inhibitory concentration [3]: 3 g/L
substantially lethal residual (extracellular) concentration ([3]; pH of 6): ~15 g/L
OCFA ([3]; propionate 10 g/L, 68 h): 63.1 ± 0.7 % TFA
Total Fatty Acids ([3]; propionate 10 g/L, 68 h): 42.8 ± 0.9 % DW
Total Lipids ([3]; propionate 10 g/L, 68 h): 55.3 ± 0.6 % DW
OCFA ([3]; propionate 10 g/L, 68 h, listed as propionate): 63 % TFA
Propionate deposition ([3]; propionate printed 1100 g/L): 6.9 ± 0.5%
